Laboratory results as given in ChEMBL document CHEMBL4145442, “Novel LCK/FMS inhibitors based on phenoxypyrimidine scaffold as potential treatment for inflammatory disorders” (Eur J Med Chem, 2017).
Calls of active or inactive are those of the source. No cut-off for these calls is given here.

What was measured:
[1] = target: T1, Tyrosine-protein kinase Lck (Homo sapiens, UniProt P06239); experiment: Inhibition of LCK (unknown origin) assessed as remaining activity at 1 x 10^-5 M after 120 mins in presence of 33P-ATP (reference value: […]% to […]%); conditions: at 10 µM
Target sequence in this assay (P06239 2-509 limits assumed): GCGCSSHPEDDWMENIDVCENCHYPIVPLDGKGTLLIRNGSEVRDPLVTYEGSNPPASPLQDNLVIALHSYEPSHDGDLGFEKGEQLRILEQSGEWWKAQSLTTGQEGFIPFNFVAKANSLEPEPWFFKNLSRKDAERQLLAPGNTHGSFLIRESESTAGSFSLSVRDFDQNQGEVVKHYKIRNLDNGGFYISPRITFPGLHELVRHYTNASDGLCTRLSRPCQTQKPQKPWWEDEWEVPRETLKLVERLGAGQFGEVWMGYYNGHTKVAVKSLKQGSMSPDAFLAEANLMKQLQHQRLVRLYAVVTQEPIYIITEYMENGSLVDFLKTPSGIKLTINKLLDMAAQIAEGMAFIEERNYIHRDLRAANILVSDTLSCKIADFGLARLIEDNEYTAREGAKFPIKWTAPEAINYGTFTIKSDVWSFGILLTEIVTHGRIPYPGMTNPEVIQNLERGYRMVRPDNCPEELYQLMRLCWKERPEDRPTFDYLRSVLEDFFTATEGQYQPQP

[2] = target: T1, Tyrosine-protein kinase Lck; experiment: Inhibition of LCK (unknown origin) assessed as remaining activity at […] x 10^-6 M after 120 mins in presence of 33P-ATP (reference value: […]% to […]%)
Target sequence in this assay (P06239 2-509 limits assumed): as above

[3] = target: T1, Tyrosine-protein kinase Lck; experiment: Inhibition of LCK (unknown origin) after 120 mins in presence of 33P-ATP
Target sequence in this assay (P06239 whole entry): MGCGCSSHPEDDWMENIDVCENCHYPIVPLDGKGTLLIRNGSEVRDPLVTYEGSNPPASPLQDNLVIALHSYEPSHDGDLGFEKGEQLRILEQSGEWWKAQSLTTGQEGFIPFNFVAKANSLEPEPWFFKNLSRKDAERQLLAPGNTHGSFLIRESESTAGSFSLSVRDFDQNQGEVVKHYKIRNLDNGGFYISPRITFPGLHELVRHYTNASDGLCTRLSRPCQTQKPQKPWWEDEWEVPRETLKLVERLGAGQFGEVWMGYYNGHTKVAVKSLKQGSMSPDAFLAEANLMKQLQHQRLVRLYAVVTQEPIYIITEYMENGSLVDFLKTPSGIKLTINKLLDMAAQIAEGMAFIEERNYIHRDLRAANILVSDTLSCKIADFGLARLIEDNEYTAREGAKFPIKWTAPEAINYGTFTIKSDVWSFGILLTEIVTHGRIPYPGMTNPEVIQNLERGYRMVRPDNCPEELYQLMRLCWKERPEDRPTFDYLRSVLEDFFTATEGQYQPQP

[4] = test system: RAW264.7; experiment: Inhibition of LPS-induced NO production in mouse RAW264.7 cells after 24 hrs by Griess assay; type: functional, cell-based; conditions: RAW264.7, 24 h
[5] = target: T1, Tyrosine-protein kinase Lck; experiment: Inhibition of LCK (unknown origin) assessed as remaining activity at 3.33 x 10^-6 M after 120 mins in presence of 33P-ATP (reference value: […]% to […]%); conditions: at 3.33 µM
Target sequence in this assay (P06239 2-509 limits assumed): as the sequence (P06239 2-509 limits assumed) above

[6] = target: T1, Tyrosine-protein kinase Lck; experiment: Inhibition of LCK (unknown origin) assessed as remaining activity at 3 x 10^-5 M after 120 mins in presence of 33P-ATP (reference value: […]% to […]%); conditions: at 30 µM
Target sequence in this assay (P06239 2-509 limits assumed): as above

[7] = target: T1, Tyrosine-protein kinase Lck; experiment: Inhibition of LCK (unknown origin) assessed as remaining activity at 3.7 x 10^-7 M after 120 mins in presence of 33P-ATP (reference value: […]% to […]%); conditions: at 0.37 µM
Target sequence in this assay (P06239 2-509 limits assumed): as above

[8] = (§1) Cytotoxicity against mouse RAW264.7 cells after 4 hrs by MTT assay; type: cell-based; conditions: mouse, RAW264.7 cells
[9] = test system: RAW264.7; experiment: Antiinflammatory activity in mouse RAW264.7 cells assessed as inhibition of LPS-induced PGE2 production after 24 hrs by enzyme immunoassay; type: functional, cell-based; conditions: RAW264.7, 24 h
[10] = target: Macrophage colony-stimulating factor 1 receptor (Homo sapiens, UniProt P07333); experiment: Inhibition of FMS (unknown origin) after 120 mins in presence of 33P-ATP
[11] = target: Homeodomain-interacting protein kinase 1 (Homo sapiens, UniProt Q86Z02); experiment: Inhibition of HIPK1 (unknown origin)
[12] = test system: RAW264.7; experiment: Potency index, ratio of L-NIL IC50 to compound IC50 for inhibition of LPS-induced NO production in mouse RAW264.7 cells; type: functional
[13] = test system: RAW264.7; experiment: Antiinflammatory activity against mouse RAW264.7 cells assessed as inhibition of LPS-induced iNOS protein expression at 3 to 12 uM after 24 hrs by Western blot analysis; type: functional, cell-based
[14] = test system: RAW264.7; experiment: Antiinflammatory activity against mouse RAW264.7 cells assessed as inhibition of LPS induced COX-2 protein expression at 3 to 12 uM after 24 hrs by Western blot analysis; type: functional, cell-based
[15] = target: High affinity nerve growth factor receptor (Homo sapiens, UniProt P04629)
Description: Inhibition of TRKA (unknown origin)

[16] = target: Tyrosine-protein kinase Lyn (Homo sapiens, UniProt P07948)
Description: Inhibition of LYN (unknown origin)

[17] = test system: RAW264.7; experiment: as §1; type: cell-based; conditions: Mus musculus, RAW264.7, 4 h

Chain of Macrophage colony-stimulating factor 1 receptor (P07333 whole entry): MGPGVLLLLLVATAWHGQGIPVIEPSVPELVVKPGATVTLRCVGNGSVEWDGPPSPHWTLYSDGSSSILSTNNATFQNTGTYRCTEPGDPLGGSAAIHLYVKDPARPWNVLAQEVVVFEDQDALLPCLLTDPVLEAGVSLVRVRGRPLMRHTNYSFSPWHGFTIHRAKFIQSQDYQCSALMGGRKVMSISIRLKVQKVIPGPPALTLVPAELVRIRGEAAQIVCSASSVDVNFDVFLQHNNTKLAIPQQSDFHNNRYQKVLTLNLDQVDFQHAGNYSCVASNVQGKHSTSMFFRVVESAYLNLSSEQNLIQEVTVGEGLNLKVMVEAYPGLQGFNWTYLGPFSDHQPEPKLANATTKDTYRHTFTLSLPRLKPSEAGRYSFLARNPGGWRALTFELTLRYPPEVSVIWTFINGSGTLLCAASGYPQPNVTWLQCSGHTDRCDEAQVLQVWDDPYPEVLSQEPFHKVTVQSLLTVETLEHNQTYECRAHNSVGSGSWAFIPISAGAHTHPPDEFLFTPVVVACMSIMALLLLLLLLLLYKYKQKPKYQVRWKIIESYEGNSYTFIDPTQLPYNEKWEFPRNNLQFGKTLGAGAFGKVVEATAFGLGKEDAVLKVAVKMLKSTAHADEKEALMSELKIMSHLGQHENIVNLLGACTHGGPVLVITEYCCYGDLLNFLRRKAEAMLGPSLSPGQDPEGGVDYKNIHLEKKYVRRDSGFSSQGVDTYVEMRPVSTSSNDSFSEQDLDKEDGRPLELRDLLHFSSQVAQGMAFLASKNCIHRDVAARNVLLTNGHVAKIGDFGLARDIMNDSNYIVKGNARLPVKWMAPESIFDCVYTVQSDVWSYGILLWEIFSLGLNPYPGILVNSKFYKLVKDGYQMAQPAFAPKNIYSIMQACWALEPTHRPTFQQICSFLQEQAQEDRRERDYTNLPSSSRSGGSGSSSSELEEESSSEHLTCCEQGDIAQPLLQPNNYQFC
Chain of High affinity nerve growth factor receptor (P04629 whole entry): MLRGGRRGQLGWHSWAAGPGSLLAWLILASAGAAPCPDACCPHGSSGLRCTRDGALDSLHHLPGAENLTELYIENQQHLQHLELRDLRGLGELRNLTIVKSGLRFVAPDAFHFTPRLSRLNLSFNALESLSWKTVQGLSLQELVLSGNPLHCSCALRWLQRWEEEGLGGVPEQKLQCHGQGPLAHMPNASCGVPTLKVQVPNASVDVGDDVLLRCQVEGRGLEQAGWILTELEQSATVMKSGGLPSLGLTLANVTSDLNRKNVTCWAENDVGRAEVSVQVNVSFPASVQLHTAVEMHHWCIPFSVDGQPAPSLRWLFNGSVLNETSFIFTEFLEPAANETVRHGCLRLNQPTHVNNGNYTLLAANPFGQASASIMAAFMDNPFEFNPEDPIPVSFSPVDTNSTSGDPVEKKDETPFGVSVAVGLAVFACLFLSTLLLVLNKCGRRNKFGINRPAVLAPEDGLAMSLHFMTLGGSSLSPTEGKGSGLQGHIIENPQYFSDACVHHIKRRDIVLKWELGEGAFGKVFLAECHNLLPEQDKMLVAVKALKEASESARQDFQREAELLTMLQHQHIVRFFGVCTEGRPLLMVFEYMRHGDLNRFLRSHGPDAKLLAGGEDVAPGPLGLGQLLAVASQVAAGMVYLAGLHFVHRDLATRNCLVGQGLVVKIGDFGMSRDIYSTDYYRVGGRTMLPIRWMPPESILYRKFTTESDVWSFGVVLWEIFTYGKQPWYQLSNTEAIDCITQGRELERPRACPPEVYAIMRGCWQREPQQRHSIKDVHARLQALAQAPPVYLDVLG
Chain of Tyrosine-protein kinase Lyn (P07948 whole entry): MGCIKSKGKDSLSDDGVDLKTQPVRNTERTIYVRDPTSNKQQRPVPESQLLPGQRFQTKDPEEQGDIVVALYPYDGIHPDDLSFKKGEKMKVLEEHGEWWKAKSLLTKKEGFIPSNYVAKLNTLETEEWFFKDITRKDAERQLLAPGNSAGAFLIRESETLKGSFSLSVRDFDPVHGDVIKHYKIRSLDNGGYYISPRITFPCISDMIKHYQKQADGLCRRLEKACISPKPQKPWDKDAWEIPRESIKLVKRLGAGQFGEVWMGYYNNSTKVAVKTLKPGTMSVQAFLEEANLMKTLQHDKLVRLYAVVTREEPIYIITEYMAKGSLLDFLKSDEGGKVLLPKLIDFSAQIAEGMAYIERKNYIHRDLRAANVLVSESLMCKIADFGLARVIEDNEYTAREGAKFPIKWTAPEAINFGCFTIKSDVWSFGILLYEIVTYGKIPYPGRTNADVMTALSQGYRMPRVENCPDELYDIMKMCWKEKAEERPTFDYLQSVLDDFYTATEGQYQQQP
Chain of Homeodomain-interacting protein kinase 1 (Q86Z02 whole entry): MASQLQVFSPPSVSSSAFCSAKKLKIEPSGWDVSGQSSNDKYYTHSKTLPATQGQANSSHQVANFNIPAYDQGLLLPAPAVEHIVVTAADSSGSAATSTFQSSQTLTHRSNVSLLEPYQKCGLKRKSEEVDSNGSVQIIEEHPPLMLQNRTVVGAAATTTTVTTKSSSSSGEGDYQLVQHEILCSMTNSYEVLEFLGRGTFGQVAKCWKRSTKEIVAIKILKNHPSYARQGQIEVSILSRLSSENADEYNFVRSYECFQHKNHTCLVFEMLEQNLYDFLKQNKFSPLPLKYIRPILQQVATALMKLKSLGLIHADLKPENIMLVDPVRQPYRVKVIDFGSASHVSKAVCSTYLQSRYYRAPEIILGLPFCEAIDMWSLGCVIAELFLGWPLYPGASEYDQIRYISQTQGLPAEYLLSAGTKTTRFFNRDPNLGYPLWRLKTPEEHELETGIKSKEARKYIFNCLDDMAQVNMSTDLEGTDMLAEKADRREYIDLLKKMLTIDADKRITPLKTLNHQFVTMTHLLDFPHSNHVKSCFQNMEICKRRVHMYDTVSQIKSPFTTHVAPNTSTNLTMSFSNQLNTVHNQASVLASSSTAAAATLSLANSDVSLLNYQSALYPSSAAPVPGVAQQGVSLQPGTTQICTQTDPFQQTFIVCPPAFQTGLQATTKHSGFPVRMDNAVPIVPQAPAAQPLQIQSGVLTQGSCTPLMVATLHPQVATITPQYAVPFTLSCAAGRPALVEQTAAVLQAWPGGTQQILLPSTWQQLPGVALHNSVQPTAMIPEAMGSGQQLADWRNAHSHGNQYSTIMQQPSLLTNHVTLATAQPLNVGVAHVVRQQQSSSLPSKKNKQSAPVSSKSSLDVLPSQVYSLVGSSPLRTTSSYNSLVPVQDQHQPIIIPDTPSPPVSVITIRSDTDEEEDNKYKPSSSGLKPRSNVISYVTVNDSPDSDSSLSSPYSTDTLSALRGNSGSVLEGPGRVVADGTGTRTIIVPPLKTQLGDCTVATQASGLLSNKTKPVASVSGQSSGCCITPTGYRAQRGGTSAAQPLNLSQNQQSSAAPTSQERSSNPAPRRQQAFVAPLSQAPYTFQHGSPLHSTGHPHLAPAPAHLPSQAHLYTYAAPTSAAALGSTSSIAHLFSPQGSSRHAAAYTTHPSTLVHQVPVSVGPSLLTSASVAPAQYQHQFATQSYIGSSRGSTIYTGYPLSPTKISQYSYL

Structure (SMILES)	Activity [1] [%]	Activity [2] [%]	IC50 [3] [µM]	IC50 [4] [µM]	Activity [5] [%]	Activity [6] [%]	Activity [7] [%]	IC80 at 4 h [8] [µM]	IC50 [9] [µM]	IC50 [10] [µM]	IC50 [11] [µM]	Ratio IC50 [12]	inhibition [13]	inhibition [14]	IC50 [15] [µM]	IC50 [16] [µM]	IC50 [17] [µM]
COc1cc(C)ccc1Oc1nc(Nc2ccc(N3CCOCC3)cc2)ncc1/N=C/c1cc(Cl)cc(Cl)c1	37.1	26.7 to 26.9	0.0065	> 1	32.8 to 33.6	38.9 to 40.7	35.8 to 36.1	0.987	–	–	–	–	–	–	–	–	–
COc1cc(C)ccc1Oc1nc(Nc2ccc(N3CCOCC3)cc2)ncc1NC(=O)Nc1cc(Cl)cc(Cl)c1	70.1 to 74.8	90.9 to 97.7	> 100	–	80.2 to 80.7	65.4 to 70	98.6 to 101	–	–	–	–	–	–	–	–	–	–
COc1cc(NC(=O)Nc2cnc(Nc3ccc(N4CCOCC4)cc3)nc2Oc2cccc(OC)c2)cc(OC)c1	42.1 to 49.3	64.7 to 71	7.97	–	57.6 to 66.5	62.1 to 63.2	78.7 to 86.2	–	–	–	–	–	–	–	–	–	–
COc1cc(C)ccc1Oc1nc(Nc2ccc(N3CCOCC3)cc2)ncc1/N=C/c1cc(C(F)(F)F)cc(C(F)(F)F)c1	55.5 to 56.8	19.2 to 20.1	0.006	–	24.7 to 27.4	24.1 to 28.5	39.7 to 40.7	–	–	–	–	–	–	–	–	–	–
CS(=O)(=O)Nc1ccc([N+](=O)[O-])cc1OC1CCCCC1 [NS-398]	–	–	–	–	–	–	–	–	0.00723	–	–	–	–	–	–	–	–
COc1ccccc1NC(=O)Nc1cnc(Nc2ccc(N3CCOCC3)cc2)nc1Oc1ccc(C)cc1OC	33.8 to 33.9	82.2 to 82.9	5.48	–	54.2 to 56	35.9 to 36.2	97.2 to 97.4	–	–	–	–	–	–	–	–	–	–
COc1cc(/C=N/c2cnc(Nc3ccc(N4CCOCC4)cc3)nc2Oc2cccc(OC)c2)cc(OC)c1	25.4 to 28.1	52.6 to 55.2	1.86	–	34.8 to 36.1	24 to 26.5	74.3 to 74.7	–	–	0.0086	–	–	–	–	–	–	–
COc1cc(C)ccc1Oc1nc(Nc2ccc(N3CCOCC3)cc2)ncc1NC(=O)Nc1c(Cl)cccc1Cl	58.3 to 62.7	86.8 to 89.4	17.4	–	75.6 to 81.8	34.8 to 38.1	93.2 to 97.7	–	–	–	–	–	–	–	–	–	–
COc1cc(C)ccc1Oc1nc(Nc2ccc(N3CCOCC3)cc2)ncc1NCc1ccc(Cl)cc1	7.08 to 7.66	20 to 20.2	0.312	–	11.2 to 11.3	2.49 to 2.9	43.1 to 46.1	–	–	–	–	–	–	–	–	–	–
COc1cc(NC(=O)Nc2cnc(Nc3cc(OC)cc(OC)c3)nc2Oc2ccc(C)cc2OC)cc(OC)c1	77.3 to 82	101 to 106	41.4	–	90.1 to 95.8	60.4 to 61.1	103 to 108	–	–	–	–	–	–	–	–	–	–
COc1cc(C)ccc1Oc1nc(Nc2ccc(N3CCOCC3)cc2)ncc1NCc1cc(C(F)(F)F)cc(C(F)(F)F)c1	55.1 to 58.1	88.1 to 91.2	11.6	–	66.6 to 71	41.1 to 41.7	104	–	–	–	–	–	–	–	–	–	–
COc1cc(/C=N/c2cnc(Nc3ccc(N4CCOCC4)cc3)nc2Oc2ccc(F)cc2)cc(OC)c1	39.9 to 41	62.5 to 64.3	3.17	–	42.7 to 47.8	65.3 to 69.2	76.7 to 83.1	–	–	0.021	–	–	–	–	–	–	–
COc1cc(C)ccc1Oc1nc(Nc2ccc(N3CCOCC3)cc2)ncc1/N=C/c1cccc(Cl)c1	11.3 to 14.9	19.6 to 23.2	0.062	> 1	15.3 to 16.8	28.6 to 36.9	32.6 to 35.6	> 1	–	–	–	–	–	–	–	–	–
Cn1cc(C2=C(c3cn(CCCSC(=N)N)c4ccccc34)C(=O)NC2=O)c2ccccc21	–	–	–	–	–	–	–	–	–	–	0.000367	–	–	–	–	–	–
COc1cc(C)ccc1Oc1nc(Nc2ccc(N3CCOCC3)cc2)ncc1/N=C/c1ccc(Cl)cc1	10.6	19.1	0.054	> 5	14.7	16.8	38.2	> 6	–	–	–	–	–	–	–	–	–
COc1cc(C)ccc1Oc1nc(Nc2ccc(N3CCOCC3)cc2)ncc1/N=C/c1ccccc1Cl	11.3 to 11.5	26.9 to 29.3	0.225	> 1	13.4 to 15.1	6.29 to 7.37	42.5 to 42.8	> 1	–	–	–	–	–	–	–	–	–
COc1cc(C)ccc1Oc1nc(Nc2ccc(N3CCOCC3)cc2)ncc1NCc1cccc(OC(F)(F)F)c1	61.3 to 65.9	83.5 to 91.3	22.1	–	68.8 to 76.6	44.9 to 45.8	92.7 to 92.9	–	–	–	–	–	–	–	–	–	–

Structure (SMILES)	Activity [1] [%]	Activity [2] [%]	IC50 [3] [µM]	IC50 [4] [µM]	Activity [5] [%]	Activity [6] [%]	Activity [7] [%]	IC80 at 4 h [8] [µM]	IC50 [9] [µM]	IC50 [10] [µM]	IC50 [11] [µM]	Ratio IC50 [12]	inhibition [13]	inhibition [14]	IC50 [15] [µM]	IC50 [16] [µM]	IC50 [17] [µM]
COc1cc(/C=N/c2cnc(Nc3ccc(N4CCOCC4)cc3)nc2Oc2ccc(C)cc2OC)cc(OC)c1	7.1 to 8.37	21.3 to 26.9	0.106	> 1	10.3 to 12.6	4.38 to 7.22	28.8 to 37.5	> 1	–	0.883	–	–	–	–	–	–	–
COc1cc(C)ccc1Oc1nc(Nc2ccc(N3CCOCC3)cc2)ncc1NC(=O)Nc1cc(C(F)(F)F)cc(C(F)(F)F)c1	89.7 to 95.1	96 to 98	> 100	–	91 to 91.3	83.5 to 89.8	95.3 to 99.2	–	–	–	–	–	–	–	–	–	–
COc1cc(NC(=O)Nc2cnc(Nc3ccc(N4CCOCC4)cc3)nc2Oc2ccc(C(F)(F)F)cc2)cc(OC)c1	78.1 to 84.5	89.3 to 89.9	> 100	–	83.8 to 90.7	74.2 to 74.8	96 to 100	–	–	–	–	–	–	–	–	–	–
COc1cc(/C=N/c2cnc(Nc3ccc(N4CCOCC4)cc3)nc2Oc2ccc(C(F)(F)F)cc2)cc(OC)c1	43.8 to 52.2	61.8 to 72.5	12.1	–	58.4 to 60	49.4 to 59.3	83.1 to 91.7	–	–	0.014	–	–	–	–	–	–	–
COc1ccc(Oc2nc(Nc3ccc(N4CCOCC4)cc3)ncc2/N=C/c2cc(OC)cc(OC)c2)cc1	27.4 to 28.3	37.8 to 39.9	0.022	10.3	30.3 to 32.9	44.8 to 48.5	53.2	> 12	5.22	0.0046	–	>2.5	Active	inactive	–	–	–
COc1ccc(NC(=O)Nc2cnc(Nc3cc(OC)cc(OC)c3)nc2Oc2ccc(C)cc2OC)cc1	92.4 to 97.2	98 to 102	> 100	–	96.5 to 99.7	90.7 to 95.4	96.3 to 102	–	–	–	–	–	–	–	–	–	–
COc1cc(NC(=O)Nc2cnc(Nc3ccc(N4CCOCC4)cc3)nc2Oc2ccc(C)cc2OC)cc(OC)c1	–	–	0.502	> 80	–	–	–	–	–	–	–	–	–	–	8.54	4.2	> 80
COc1cc(C)ccc1Oc1nc(Nc2ccc(N3CCOCC3)cc2)ncc1NCc1ccc(OC(F)(F)F)cc1	43.7 to 45.1	59.5 to 61.6	3.3	–	45 to 47.1	21.3 to 22.5	84.9 to 85.4	–	–	–	–	–	–	–	–	–	–
COc1cc(C)ccc1Oc1nc(Nc2ccc(N3CCOCC3)cc2)ncc1/N=C/c1cccc(OC(C)C)c1	19.8 to 20.8	27.6 to 29.2	0.039	> 5	20 to 24.3	12.4 to 16.2	37.5 to 37.9	> 6	–	–	–	–	–	–	–	–	–
COc1cc(NC(=O)Nc2cnc(Nc3ccc(N4CCOCC4)cc3)nc2Oc2ccc(F)cc2)cc(OC)c1	68.9 to 70.1	84 to 87.5	71.1	–	77.8 to 81.3	52.5 to 61.6	83.2 to 90.3	–	–	–	–	–	–	–	–	–	–
COc1ccc(OC)c(/C=N/c2cnc(Nc3ccc(N4CCOCC4)cc3)nc2Oc2ccc(C)cc2OC)c1	12.5 to 14.4	19.9 to 21.8	0.11	> 1	12.8 to 13.1	8.37 to 10.1	38.7 to 38.9	> 1	–	–	–	–	–	–	–	–	–
COc1cc(Nc2ncc(NC(=O)Nc3c(Cl)cccc3Cl)c(Oc3ccc(C)cc3OC)n2)cc(OC)c1	72.6 to 81.8	94 to 95.5	58.4	–	85.2 to 88.2	61.5 to 61.7	93.7 to 96	–	–	–	–	–	–	–	–	–	–
COc1cc(OC)cc(C(=O)Nc2cnc(Nc3ccc(N4CCOCC4)cc3)nc2Oc2ccc(C)cc2OC)c1	46.5 to 47	86.7 to 89	10.3	–	67.3 to 72.8	39 to 39.6	99.1 to 99.3	–	–	–	–	–	–	–	–	–	–
C/C(=N/N)NCCCC[C@H](N)C(=O)O	–	–	–	28.3	–	–	–	–	–	–	–	–	–	–	–	–	–
COc1cc(C)ccc1Oc1nc(Nc2ccc(N3CCOCC3)cc2)ncc1/N=C/c1cccc(OC(F)(F)F)c1	49 to 54.7	26.8 to 27.9	0.0335	> 20	41.1 to 43.7	41.7 to 50.1	39.2 to 39.8	< 5	–	–	–	–	–	–	–	–	–
COc1cc(Nc2ncc(NC(=O)c3cc(OC)cc(OC)c3)c(Oc3ccc(C)cc3OC)n2)cc(OC)c1	95.7 to 97.5	99.6 to 102	> 100	–	100 to 101	92.3 to 96.8	98.3 to 103	–	–	–	–	–	–	–	–	–	–
